Laboratory results taken from patent US20070129403A1, “METHOD OF TREATING SCHIZOPHRENIA AND/OR GLUCOREGULATORY ABNORMALITIES” (AVENTIS PHARMACEUTICALS INC., priority 2004, published 2007).
“And” between values parts separate entries of the source, which are not always exact repeats. Equal values may be shown once.

Tests used:
[1] = biological target: T1, voltage-gated potassium channels in hamster HIT-T15 insulinoma cells (Mesocricetus auratus, UniProt A0A3Q0CYQ2); assay: Whole-cell patch clamp, voltage-gated potassium currents in HIT-T15 insulinoma cells; format: cell-based, Syrian Hamster; details: for Voltage-Gated Potassium Current (% Control), Average: average of cells; for Voltage-Gated Potassium Current (% Control), single cells: individual cells #1-#5
T1 construct: endogenous in cells; host or cells: HIT-T15 (Syrian hamster insulinoma)
T1 sequence (A0A3Q0CYQ2 1-857): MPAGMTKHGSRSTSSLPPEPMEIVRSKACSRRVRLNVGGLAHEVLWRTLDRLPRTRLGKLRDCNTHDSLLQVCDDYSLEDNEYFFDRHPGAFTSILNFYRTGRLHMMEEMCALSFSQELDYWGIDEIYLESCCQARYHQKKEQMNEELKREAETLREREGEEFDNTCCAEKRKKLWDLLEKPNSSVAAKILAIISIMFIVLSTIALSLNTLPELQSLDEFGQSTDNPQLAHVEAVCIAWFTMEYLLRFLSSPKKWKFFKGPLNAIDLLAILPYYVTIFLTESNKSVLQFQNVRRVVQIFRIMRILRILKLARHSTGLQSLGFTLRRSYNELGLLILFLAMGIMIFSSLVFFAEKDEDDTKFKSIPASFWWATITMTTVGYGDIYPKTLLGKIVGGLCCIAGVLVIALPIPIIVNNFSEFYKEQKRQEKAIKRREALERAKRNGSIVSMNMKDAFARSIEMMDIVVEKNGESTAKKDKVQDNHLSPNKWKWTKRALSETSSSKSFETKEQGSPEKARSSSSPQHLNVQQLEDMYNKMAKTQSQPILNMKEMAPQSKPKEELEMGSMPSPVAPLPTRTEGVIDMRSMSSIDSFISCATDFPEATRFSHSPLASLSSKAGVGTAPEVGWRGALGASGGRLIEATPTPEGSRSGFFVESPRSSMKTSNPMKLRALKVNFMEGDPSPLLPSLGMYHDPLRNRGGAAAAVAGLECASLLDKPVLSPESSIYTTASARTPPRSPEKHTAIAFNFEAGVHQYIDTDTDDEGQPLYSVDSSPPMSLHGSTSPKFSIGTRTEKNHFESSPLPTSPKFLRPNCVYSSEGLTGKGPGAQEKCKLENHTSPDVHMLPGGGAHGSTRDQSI
Protocol: The purpose of this in vitro study was to evaluate the effects of HP184 on voltage-gated potassium channels in hamster HIT-T15 insulinoma cells using the whole-cell patch-clamping technique.
HIT-T15 cells (from Syrian Hamster pancreas) expressing voltage-gated potassium channels were grown in RPMI media supplemented with 10% fetal bovine serum and 1×penicillin/streptomycin in an atmosphere of 95% air/5% CO2. Cells used for patch-clamping were seeded on glass or plastic coverslips 12-36 hours before use. Currents were recorded at room temperature using the whole-cell configuration of the patch clamp technique with an Axopatch 200B amplifier (Axon Instruments, Foster City, Calif.). Briefly, electrodes (3-6 MΩ resistance) were fashioned from TW150F glass capillary tubes (World Precision Instruments Sarasota, Fla.) and filled with pipette solution (in mM: potassium aspartate 120; KCl 20; Na2ATP 4; HEPES 5; MgCl2 1; pH 7.2 adjusted with KOH). Currents were initiated by a 300-ms positive voltage pulse (20 mV) followed by a 50-ms negative pulse (−100 mV) and were recorded for off-line analyses. Once current from a cell perfused with control external solution (in mM: NaCl 130; KCl 5; sodium acetate 2.8; MgCl2 1; HEPES, 10; glucose 10; CaCl2 1 at pH7.4 adjusted with NaOH) was stabilized, the cell was perfused with external solution containing 1 μM HP184 (batch: R.C.4.53.3; molecular weight: 320.5; diluted from a 50 mM stock solution in DMSO prepared daily; the DMSO final concentration in all drug solutions was not more than 0.06%). Currents were continuously recorded until they reached steady-state condition. The same procedure was performed with increasing concentrations of HP184 (3, 10 and 30 μM, sequentially). For each concentration from each cell, the steady-state current at the end of the 20-mV activation pulse was measured in pico Ampere (pA).
The amplitude in pA for each concentration was compared with that for the control solution from the same cell and expressed as percent control (% control).

[2] = biological target: T2, cloned human Kv2.1 potassium channels (Homo sapiens, UniProt Q14721); assay: Whole-cell patch clamp, cloned human Kv2.1 channels expressed in U-373MG cells; format: cell-based; details: for Kv 2.1 Current (% Control), Average: average of cells; for Kv 2.1 Current (% Control), single cells: individual cells
T2 construct: expressed in transfected cells; host or cells: U-373MG (G418 selection)
T2 sequence (Q14721 1-858): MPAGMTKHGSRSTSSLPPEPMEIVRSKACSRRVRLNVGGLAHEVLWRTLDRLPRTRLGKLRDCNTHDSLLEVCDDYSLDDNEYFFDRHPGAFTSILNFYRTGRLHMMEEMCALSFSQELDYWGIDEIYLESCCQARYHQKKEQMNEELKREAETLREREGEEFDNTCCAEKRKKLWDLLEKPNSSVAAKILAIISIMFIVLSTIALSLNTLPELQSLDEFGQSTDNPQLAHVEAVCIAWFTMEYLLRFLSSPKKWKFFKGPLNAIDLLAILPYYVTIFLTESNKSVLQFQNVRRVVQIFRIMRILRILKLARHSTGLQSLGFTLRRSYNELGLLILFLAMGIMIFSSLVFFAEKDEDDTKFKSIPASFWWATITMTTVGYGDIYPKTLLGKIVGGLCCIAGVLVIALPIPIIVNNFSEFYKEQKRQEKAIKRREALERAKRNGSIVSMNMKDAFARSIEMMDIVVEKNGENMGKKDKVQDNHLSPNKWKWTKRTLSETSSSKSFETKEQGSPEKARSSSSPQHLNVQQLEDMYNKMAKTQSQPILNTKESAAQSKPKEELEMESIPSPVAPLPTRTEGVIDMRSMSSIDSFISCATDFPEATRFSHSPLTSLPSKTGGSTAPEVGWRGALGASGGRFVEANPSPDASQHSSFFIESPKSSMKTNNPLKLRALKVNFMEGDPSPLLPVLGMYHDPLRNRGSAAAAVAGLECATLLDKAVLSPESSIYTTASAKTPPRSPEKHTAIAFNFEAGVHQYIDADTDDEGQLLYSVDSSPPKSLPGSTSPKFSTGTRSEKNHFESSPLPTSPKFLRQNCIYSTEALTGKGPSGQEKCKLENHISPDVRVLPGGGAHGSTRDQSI
Protocol: The purpose of this in vitro study was to evaluate the effects of HP184 on cloned human Kv2.1 potassium channels expressed in U-373MG cells using the whole-cell patch-clamping technique.
U-373MG cells expressing the human Kv2.1 channels were grown in DMEM media supplemented with 10% fetal bovine serum, 1×penicillin/streptomycin and […], G418 (Invitrogen, Carlsbad, Calif.) in an atmosphere of 95% air/5% CO2. Cells used for patch-clamping were seeded on glass or plastic coverslips 12-36 hours before use. Kv2.1 Currents were recorded at room temperature using the whole-cell configuration of the patch clamp technique with an Axopatch 200B amplifier (Axon Instruments, Foster City, Calif.). Briefly, electrodes (2-4 MΩ resistance) were fashioned from TW150F glass capillary tubes (World Precision Instruments, Sarasota, Fla.) and filled with pipette solution (in mM: potassium aspartate 120; KCl 20; Na2ATP 4; HEPES 5; MgCl2 1; pH 7.2 adjusted with KOH). For dose-dependently, currents were initiated by a 300-ms positive voltage pulse (20 mV) followed by a 50-ms negative pulse (−100 mV) and were recorded for off-line analyses. Once current from a cell perfused with control external solution (in mM: NaCl 130; KCl 5; sodium acetate 2.8; MgCl2 1; HEPES, 10; glucose 10; CaCl2 1 at pH7.4 adjusted with NaOH) was stabilized, the cell was perfused with external solution containing 1 μM HP184 (batch: R.C.4.53.3; molecular weight: 320.5; diluted from a 50 mM stock solution in DMSO; the DMSO final concentration in all drug solutions was not more than 0.06%). Currents were continuously recorded until they reached steady-state condition. The same procedure was performed with increasing concentrations of HP184 (3, 10 and 30 μM, sequentially). For each concentration from each cell, the steady-state current at the end of the 20-mV activation pulse was measured in pico Ampere (pA). The amplitude in pA for each concentration was compared with that for the control solution from the same cell and expressed as percent control (% control).

[3] = test system: release of norepinephrine, acetylcholine and serotonin; details: dependence on added calcium; Smith et al, 1993; 1996; cited from earlier work

Structure (SMILES)	Voltage-Gated Potassium Current (% Control), Average ([1]; 1 μM)	Voltage-Gated Potassium Current (% Control), single cells ([1]; 1 μM)	Voltage-Gated Potassium Current (% Control), Average ([1]; 3 μM)	Voltage-Gated Potassium Current (% Control), single cells ([1]; 3 μM)	Voltage-Gated Potassium Current (% Control), Average ([1]; 10 μM)	Voltage-Gated Potassium Current (% Control), single cells ([1]; 10 μM)	Voltage-Gated Potassium Current (% Control), Average ([1]; 30 μM)	Voltage-Gated Potassium Current (% Control), single cells ([1]; 30 μM)	IC50 ([1]; HIT-T15 cells, steady-state current at end of 20-mV pulse, read-out: IC50, block of voltage-gated potassium currents)	Kv 2.1 Current (% Control), Average ([2]; 1 μM)	Kv 2.1 Current (% Control), single cells ([2]; 1 μM)	Kv 2.1 Current (% Control), Average ([2]; 3 μM)	Kv 2.1 Current (% Control), single cells ([2]; 3 μM)	Kv 2.1 Current (% Control), Average ([2]; 10 μM)	Kv 2.1 Current (% Control), single cells ([2]; 10 μM)	Kv 2.1 Current (% Control), Average ([2]; 30 μM)	Kv 2.1 Current (% Control), single cells ([2]; 30 μM)	IC50 ([2]; U-373MG cells expressing human Kv2.1, read-out: IC50, block of Kv2.1 current)	Release of norepinephrine, acetylcholine and serotonin from rat brain slices (in words) [3]
CCCN(c1ccncc1F)n1cc(C)c2ccccc21 [HP184, N-(3-fluoro-4-pyridinyl)-N-propyl-3-methyl-1H-indole-1-amine]	85.7 % Control	95.1 % Control and 84.7 % Control and 80.9 % Control and 85.4 % Control and 82.6 % Control	62.5 % Control	86.4 % Control and 61.5 % Control and 46.4 % Control and 58.8 % Control and 59.3 % Control	17.2 % Control	34.0 % Control and 9.1 % Control and 12.6 % Control (2×) and 17.8 % Control	1.4 % Control	2.6 % Control and 0.8 % Control and 0.9 % Control and 1.2 % Control	3.9 µM	91.7 % Control	98 % Control and 91.0 % Control and 89.2 % Control and 91.6 % Control and 95.0 % Control and 90.5 % Control (2×) and 94.5 % Control and 83.6 % Control and 91.8 % Control and 95.5 % Control	72.3 % Control	93.0 % Control and 63.1 % Control and 69.6 % Control and 62.9 % Control and 68.5 % Control and 70.8 % Control and 87.5 % Control and 86.1 % Control and 88.5 % Control and 79.9 % Control and 89.7 % Control	28.3 % Control	58.2 % Control and 19.9 % Control and 37.7 % Control and 24.4 % Control and 17.1 % Control and 38.5 % Control and 43.8 % Control and 13.1 % Control and 19.1 % Control and 12.5 % Control	10.4 % Control	22.1 % Control and 13.7 % Control (2×) and 16.2 % Control and 6.7 % Control and 1.4 % Control and 12.8 % Control and 4.8 % Control (2×) and 8.7 % Control	5.6 µM	
Nc1ccncc1 [4-AP, 4-aminopyridine]																			dependent on added calcium
